In US20180306775A1, “Portable Sampling Device and Method for Sampling Drug Substances From Exhaled Breath” (Sensa Bues AB, priority 2011, published 2018):

Tests used:
Format in all cases: in vivo, human
[1] = Sampling of methadone in exhaled breath with constructed sampler (tubular section with baffles), two filter thicknesses; conditions: for Constructed sampler Methadone Range: n=5
From the text: (§1) Sampling of drugs of abuse from exhaled human breath using filter membrane.
The subject exhales through the tubular section comprising baffles to trapping large particles and saliva.

[2] = Sampling of methadone from exhaled breath using electrostatic filter membrane (250 g/m2 non-woven layer, two carriers); conditions: for Methadone Range: range among subjects
Procedure: as §1
The tests were performed at 4 different occasions.

[3] = Pre-study: sampling of methadone in breath using variable densities of the electrostatic filter membrane; conditions: exhaled breath, n=5; for Methadone Range: range among subjects
From the text: as §1
Type is the density of the non-woven layer at each test, the other headlines are the same as for table 1.

[4] = filter diameter 32 mm, sampling time 1 min, n=6
[5] = filter diameter 32 mm, sampling time 3 min, n=5 (one of 4 occasions)
[6] = filter diameter 32 mm, sampling time 3 min, n=6 (one of 4 occasions)
[7] = filter diameter 47 mm, sampling time 3 min, n=6

SMILES: CCC(=O)C(CC(C)N(C)C)(c1ccccc1)c1ccccc1 (stereo not drawn) [Methadone, methadone]
- Constructed sampler Methadone pg/min mean ± SD ([1]; filter thickness 1, n=5): 40 ± 27 pg/min
- Constructed sampler Methadone Range ([1]; filter thickness 1, range among subjects): 12 to 85 pg/min
- Constructed sampler Methadone pg/min mean ± SD ([1]; filter thickness 2, n=5): 42 ± 28 pg/min
- Constructed sampler Methadone Range ([1]; filter thickness 2, range among subjects): 17 to 90 pg/min
- Methadone pg/min mean ± SD [2, 4]: 204 ± 116 pg/min
- Methadone Range [2, 4]: 21 to 326 pg/min
- Methadone pg/min mean ± SD [2, 5]: 112 ± 89 pg/min
- Methadone pg/min mean ± SD [2, 6]: 92 ± 62 pg/min
- Methadone Range [2, 5]: 47 to 266 pg/min
- Methadone Range [2, 6]: 28 to 199 pg/min
- Methadone pg/min mean ± SD [2, 7]: 86 ± 52 pg/min
- Methadone Range [2, 7]: 18 to 168 pg/min
- Methadone Range ([3]; filter type 150 g/m2): 24 to 216 pg/min
- Methadone Range ([3]; filter type 250 g/m2): 19 to 231 pg/min
- Methadone Range ([3]; filter type 300 g/m2): 20 to 287 pg/min
- Methadone pg/min mean ± SD ([3]; filter type (density of non-woven layer) 150 g/m2): 74.4 ± 80.4 pg/min
- Methadone pg/min mean ± SD ([3]; filter type (density of non-woven layer) 250 g/m2): 71.0 ± 90.1 pg/min
- Methadone pg/min mean ± SD ([3]; filter type (density of non-woven layer) 300 g/m2): 91.8 ± 110 pg/min
